Assay results reported in a melting point compilation (Tetko et al.; mined from patent text by program, amines drawn as free bases though some values may be those of a salt).

Row | SMILES | melting point [°C]
1 | C=C1N(CC)C(=O)OC12CCN(CCCN1c3ccccc3Sc3ccccc31)CC2 | 122 to 123
2 | O=C(Cc1ccc(O)cc1)c1ccc(O)cc1O | 186
3 | CC(=O)c1ccc(C2=C(c3ccc(S(C)(=O)=O)cc3)OC(C)(C)C2=O)cc1 | 164 to 167
4 | CCOC(=O)CCc1ccc2c3ccccc3n(Cc3ccccc3)c2c1C | 114 to 115
5 | NC(=O)c1ccn2c1CSC2 | 186
6 | COc1ccc(CN(OC)C(=O)C2=C(O)C(=O)N(C)C2)cc1 | 135 to 137
7 | CCCCCS(=O)(=O)NC(=O)/C=C/c1cc(C(C)(C)C)nn1Cc1ccc(C(F)(F)F)cc1Cl | 147 to 148
8 | COc1ncccc1-c1ncc(OC2SCC(O)C(O)C2O)cc1F (configuration not stated) | 141
9 | Cc1ccc(N2N=C3c4cc(C)sc4CCCC3CC2=O)cc1 (configuration not stated) | 117 to 119
10 | CCn1c(=O)c2c(nc(/C=C/c3cccc(OC)c3OC)n2C)n(CC)c1=O | 195 to 196
11 | O=C1Nc2ccccc2OC1c1ccc(Cl)cc1 (configuration not stated) | 180 to 182
12 | CC(CC1OCCc2ccccc21)NCC(O)c1ccc(O)cc1 (configuration not stated) | 83 to 105
13 | COc1cc(COc2ccc(N)nn2)c2ccccc2c1 | 167 to 170
14 | COc1ccc(Cc2c(NC(C)C(C)(C)C)c(=O)c2=O)cc1 (configuration not stated) | 137 to 138
15 | Fc1ccc(CCCC(c2ccc(F)cc2)c2c[nH]cn2)cc1 (configuration not stated) | 135 to 137
16 | COc1ccccc1-n1c(Cn2cnc3c(N)ncnc32)nc2cccc(Cl)c2c1=O | 257
17 | Cc1nc(N2CCN(Cc3cccnc3)C2=O)sc1C(=O)NCc1ccccc1 | 110 to 113
18 | Nc1cccc2c(OCc3ccccc3)ccnc12 | 115
19 | CN1CCN(Cc2cccc(-c3cc4c(Nc5ccc6[nH]ccc6c5)c(C#N)cnc4s3)c2)CC1 | 128 to 130
20 | CN1CCN(C(=N)Nc2ccccc2-c2cccc(F)c2)CC1 | 117 to 118
21 | N#Cc1ccc(OC2SCC(O)C(O)C2O)cn1 (configuration not stated) | 179 to 180
22 | COc1cc2[nH]c(SCc3nccc(OC)c3OC)nc2cc1OC(F)F | 137 to 138
23 | CCNCCCCCC(C)O (configuration not stated) | 37 to 38
24 | COC(=O)c1cc(OCc2nc(-c3ccccc3)sc2C)no1 | 89 to 90
25 | Cc1cccnc1CS(N)(=O)=O | 155 to 158
26 | NC(=O)C1(N2C(=O)c3cccc(Br)c3C2=O)CCCCC1 | 199 to 200

Row | SMILES | melting point [°C]
27 | CN1CCOC(C2=C(C#N)C(c3cccc4nonc34)c3c[nH]nc3N2)C1 (configuration not stated) | 143
28 | Cc1ccc(-c2ccc3c(c2)C=C(C(=O)Nc2ccc(CN4CCN(CCO)CC4)cc2)CC3)cc1 | 185 to 187
29 | CC(=O)c1ccc2c(c1)C(=O)c1ccccc1CN2Cc1ccccc1 | 163 to 165
30 | COc1ccc(C(=O)C2=C(O)C(=O)N(c3nnc(C(F)(F)F)s3)C2c2ccc(C(C)(C)C)cc2)cc1 (configuration not stated) | 271
31 | O=C(O)Cc1ccc(C2=CCCCC2)cc1 | 118 to 120
32 | NP(N)(=O)NC(=O)c1ccsc1 | 269 to 278
33 | O=C1NC(=S)SC1=Cc1c(F)c(F)c(F)c(F)c1F | 132 to 135
34 | O=c1nc(-c2ccc3c(c2)OCO3)c2cc3c(cc2n1CC1CC1)OCO3 | 255 to 260
35 | N#CCCCN1CCOC(c2ccccc2)(c2ccccc2)CC1 | 89 to 90
36 | CCCCCCCCCCCCCCc1ccc2c(c1)C(=O)C(=O)N2 | 87 to 89
37 | COC(=O)Cc1c(OC)ccc2c1Oc1c(ccc(OC)c1C=NO)C2(C)C | 234 to 236
38 | CC1(C)C(C=C2CCSC2=O)C1C(=O)OC(C#N)c1ccc(F)c(Oc2ccccc2)c1 (configuration not stated) | 131
39 | O=C(NC(Cc1ccccc1)C(=O)O)OCC1c2c(c3ccccc3c3ccccc23)-c2c1c1ccccc1c1ccccc21 (configuration not stated) | 137 to 140
40 | COc1ccc(C[C@@H](C(=O)[C@H](Cc2ccc(OC)c(OC)c2)N2C(=O)c3ccccc3C2=O)N2C(=O)c3ccccc3C2=O)cc1OC | 126 to 128
41 | O=c1ccn(-c2cccc(C(F)(F)F)c2)nc1-c1ccnn1Cc1ccccc1 | 156 to 157
42 | O=C(Nc1ccc(-n2nc(C(F)(F)F)cc2C(F)(F)F)cc1)c1ccc(F)cc1F | 126 to 128
43 | Cc1ccccc1OCC1CO1 (configuration not stated) | 114 to 116
44 | O=C(N=C1SCCN1Cc1cnc(Cl)s1)c1ccccc1 | 120
45 | O=C(O)c1nc(NCC(c2ccccc2)c2ccccc2)c2nc[nH]c2n1 | 241 to 249
46 | COc1ccc(-c2ccc3c(c2)CCc2nn(-c4ccccn4)c(O)c2-3)cc1 | 159 to 160
47 | COc1ccc2c(c1)C(O)(c1ccccn1)CC(C)(C)CO2 (configuration not stated) | 98
48 | CC(CO)(CO)NCc1cc2c3ccccc3ccc2c2ccccc12 | 200 to 202
49 | NC(=O)C1(Nc2ccccc2)CCN([C@H]2CCc3ccccc32)CC1 | 194 to 195
50 | O=C(Cl)C(=O)c1cn(Cc2ccc(F)cc2)c2ccc(OCc3ccccc3)cc12 | 155 to 158
51 | OC(CCc1ccccc1)C(O)CCc1ccccc1 (configuration not stated) | 128 to 129
52 | C1CC2CNCCNCCNCCNCC(C1)N2 | 90 to 90.5

Row | SMILES | melting point [°C]
53 | Nc1ccccc1NC(=O)c1cc2cccc(OCc3ccccn3)c2o1 | 105 to 135
54 | O=C(Cl)c1ccccc1Nc1cccc([N+](=O)[O-])c1 | 141 to 145
55 | Cc1cccc(NC(=O)OCCS(C)(=O)=O)c1CNc1cccn2c(C)c(C)nc12 | 161 to 162
56 | O=C1NC(=O)C(Cc2ccc(OC3CCN(C(=O)OCc4ccccc4)CC3)cc2)S1 (configuration not stated) | 72 to 74
57 | Cc1nc2c3c(ccn2c1C)[C@H](O)[C@](O)(Cc1ccccc1)[C@@H](c1ccccc1)N3 | 115 to 122
58 | CC(=O)OC1CSC(Br)C(OC(C)=O)C1OC(C)=O (configuration not stated) | 175
59 | CC(=O)Oc1ccc(C[C@H]2CCc3ccccc3O2)cc1 | 64 to 65
60 | COC(=O)c1ccc(SCc2cccc(C(F)(F)F)c2)c(C)n1 | 91 to 93
61 | Cc1nc(-c2sc(-c3ccc(Cl)cc3)nc2C)sc1C(=O)O | 265 to 268
62 | C=CCOC(=O)c1cccc(S(=O)(=O)n2c(=O)[nH]c(=O)c3ccc(Cl)cc32)c1 | 187 to 189
63 | CCCCCCCCCCOc1cnc(-c2ccc(C#CCCCC(C)OC(C)=O)cc2)nc1 (configuration not stated) | 57 to 58
64 | CCCCOC(=O)n1c(N)nc(C#N)c1C#N | 170 to 172
65 | CCCCCCc1ccc(C(=O)CCCCC(=O)O)cc1 | 77 to 79
66 | CN1C(=O)[C@@](NC(=O)Nc2cccc(CNc3nnn[nH]3)c2)(C2CCCCC2)N=Cc2ccccc21 | 175 to 178
67 | N#Cc1cc(NC(=O)c2ccn(-c3ccc(Cl)cc3)c2)ccc1N1CCN(C2CCOCC2)CC1 | 224
68 | O=C(NCl)c1cccc(C(=O)NCl)c1 | 73.5 to 75
69 | CCc1cc(OC)c(S(C)(=O)=O)cc1C(=O)N=C(N)N | 192 to 195
70 | Nc1nc(Oc2ccccc2)nc2nc(-c3ccco3)nn12 | 250 to 252
71 | CCOc1ccc2c(c1)nc1n2CC(c2ccccn2)S1=O (configuration not stated) | 145 to 147
72 | CCNc1nc(C)c(C(=O)c2ccc(N)c(N)c2)s1 | 185 to 225
73 | Cc1ccc2c(c1)nnn2C1(c2ccccc2)OC(=O)c2cccc([N+](=O)[O-])c21 (configuration not stated) | 240 to 248
74 | OC(c1nc(-c2ccc(F)cc2)c(-c2ccc(F)cc2)[nH]1)(C(F)(F)F)C(F)(F)F | 153 to 155
75 | CCOC(=O)c1cc(-c2csc(-c3ccnc(NCC4CC4)c3)n2)c(=O)[nH]c1C | > 260
76 | Cn1c(=O)ccc2c(-c3ccccc3)nccc21 | 190 to 192
77 | OC(Cc1ccccn1)(c1ccccc1)c1ccccc1 | 147 to 151
78 | OCCCCCCOc1ccccc1 | 69 to 74

Row | SMILES | melting point [°C]
79 | CC(C(=O)O)n1cc(-c2ccccc2)c(=O)c(-c2cccc(C(F)(F)F)c2)c1 (configuration not stated) | 236 to 237
80 | Cc1cccc2c1OC[C@H](NC(=O)OC(C)(C)C)C(=O)N2 | 179
81 | COC(=O)CC(=O)c1cncc(OC)n1 | 66
82 | CC(=O)N[C@@H](CSC(=O)C(C)(C)C)C(=O)NCCSC(C)=O | 92 to 94
83 | O=C1NC(=O)c2cc(Nc3ccc(OCc4ccccc4)cc3)c(Nc3ccc(OCc4ccccc4)cc3)cc21 | 187 to 189
84 | CS(=O)(=O)c1ccc(-n2cnc3ccc(-c4nnc(CC(F)(F)F)o4)cc32)cc1 | 229 to 232
85 | CC(C)(C)C1=CC(=O)C2=C(CCCC2)C1=O | 50 to 52
86 | O=c1[nH]c(NCCCNc2ccccn2)ncc1Cc1ccc(Cl)cc1 | 168 to 171
87 | Cc1nn(C)c(C)c1S(=O)(=O)n1c(CCCC(=O)O)cc2cc(Cl)ccc21 | 142 to 145
88 | C#CCNC(=O)c1ncn2c1[C@@H]1CCN1C(=O)c1ccccc1-2 | 214 to 215
89 | O=[N+]([O-])c1cc(Cl)c(Cl)cc1O | 63 to 65
90 | CCCS(=O)c1sc(C(N)=O)c2c1-c1c(cnn1CC(F)(F)F)CC2 (configuration not stated) | 165 to 166
91 | CS(=O)(=O)Nc1ccc(CCN2CCN(c3ccc(NS(C)(=O)=O)c(F)c3)CC2)cc1 | 232 to 234
92 | FC(F)(F)c1cccc2c(-c3ccccc3)c(Oc3ccccc3)cnc12 | 153 to 155
93 | OC1(COc2cccc3ccccc23)CCN(Cc2ccccc2)C1 (configuration not stated) | 130
94 | Oc1ncnc2c(-c3ccc(Cc4ccc(Cl)cc4)cc3)cnn12 | 292 to 296
95 | COc1cc(C2CCCO2)cc(OC)c1OC (configuration not stated) | 102 to 104
96 | COc1cc2c(cc1OCc1ccccc1)C(OC)CN(Cc1cc(OC)c(OC)c(OC)c1)C2 (configuration not stated) | 89 to 90
97 | CCOC(=O)NC(=NCCCc1c[nH]cn1)NCCSCc1ccccn1 | 60 to 61
98 | COC(=O)c1c(C(F)F)nc(C(F)(F)F)c(N=COCC2CO2)c1CC(C)C (configuration not stated) | 41 to 43
99 | O=C(Nc1ccc2c(c1)CC(NS(=O)(=O)c1ccccc1)C2)c1ccccc1-c1ccc(C(F)(F)F)cc1 (configuration not stated) | 96
100 | O=Cc1c(F)ccc(Cl)c1Cl | 55 to 57
101 | COc1ccc(S(N)(=O)=O)cc1C(=O)NC1CCN(C2CCCCC2)C1 (configuration not stated) | 184 to 187
102 | CC(C)NC1=NS(=O)(=O)c2cc([N+](=O)[O-])ccc2N1 | 311 to 313
